Patent US5863716A, “Treatment of plasmodium” (The Leland Stanford Junior University Board of Trustees, priority 1997, dated 1999)

Key:
[1] = system: tubovesicular membrane reticulum (TVM) of P. falciparum-infected erythrocytes; assay: Tubovesicular membrane (TVM) morphology, C5-DMB-ceramide labeling, confocal microscopy; type: cell-based; conditions: 5 μM
Method: Serial sections through P. falciparum-infected erythrocytes labeled with C5 -DMB-ceramide (4,4-difluoro-5,7-dimethyl-4-bora-3a,4a-diaza-5-indacene-3-pentanoyl)-sphingosine) 12 h (rings) and 36 h (trophozoites) after invasion.
Schizont-stage parasites isolated over Percoll were allowed to invade in the presence of RPMI 1640 containing 10% human serum or in the presence of RPMI 1640 containing 10% human serum and 5 μM PPMP. 1×10^8 infected erythrocytes of the appropriate stage were incubated in 1 ml of RPMI 1640 supplemented with 2mg/ml defatted BSA and 20 μM C5 -DMB-ceramide. Cells were washed and fixed as described in Example 5. Sequential micrographs were taken on a custom made laser confocal microscope at 400 nm intervals along the Z axis. Raw data were processed as described previously.

[2] = system: P. yoelii and P. chabaudi; assay: Anti-parasite effect in infected mice; type: in vivo, mouse
Method: Preparation of test compounds, toxicity and pharmacokinetics in mice: PPMP and its derivatives are made up as a stock solution in ethanol, diluted into sterile saline, warmed up to 37° C. and delivered once or several times a day, either intraperitoneally (i.p.) or intravenously (i.v.). The animals are monitored on a daily basis for signs of toxicities which (from mild to extreme) include abnormal grooming behavior, loss or thinning of hair, enlargement of spleen and loss of activity. 0 to 30 micrograms PPMP/per gm of mouse body weight is administered. Effective anti-parasite concentrations of PPMP are predicted to be at ~2 micrograms of PPMP/gm of mouse body weight. Based on preliminary studies, 8-10 micrograms of PPMP per gram of (mouse) body weight have no significant toxicity over 16 days. Compounds and levels found to be non toxic over 30 days will be further tested for their effects on infections of P. yoelii and P. chabaudi.
Effects of PPMP/other lead compounds on non lethal and lethal strains of P. yoelii and P. chabaudi. Both lethal and non lethal strains of P. yoelii have a 24 h cycle. For both strains, parasites can be injected i.p., with an innoculum of 5×10^5 parasites. […]
Mice are injected with the inhibitor on day 1. […] On subsequent days the drugs is delivered once a day and the parasitemia is monitored by tail bleeds. […]

P. falciparum strain FCB = assay: Inhibition of intraerythrocytic growth in culture, Giemsa staining after 24 h; type: cell-based, Plasmodium falciparum; conditions: Plasmodium falciparum; 5 μM added to 0-12 h rings; Giemsa staining after 24 h; read-out: [%] inhibition of growth
Source text: P. falciparum strain FCB was used for all experiments and cultured in vitro in according to a modification of the method of Trager and Jensen left off. Trager, W. and Jensen, J. B. (1976) Human malaria in continuous culture., Science (Wash. D.C.) 193: 673-675 Haldar, K., Ferguson, M. A. J. and Cross, G. A. M. (1985) Acylation of a Plasmodium falciparum merozoite surface antigen via sn-1, 2-diacyl glycerol. J. Biol. Chem. 260; 4969-4974. The culture medium contained RPMI 1640 supplemented with 25 Mm hepes, Ph 7.4/11 […] glucose/92 μM hypoxanthine/0.18% sodium bicarbonate/25 μM gentamicin and 10% AB^+ human sera. The parasites were grown in A^+ erythrocytes at 2.5-5% hematocrit. Parasite cultures were synchronized by separation of the early and late stages on a Percoll gradient. The subsequent reincubation of these stages in culture were used to obtain cells 12-24 h in the life cycle. Inhibition of sphingomyelin biosynthetic activity using 5 μM of the various compounds was carried out as described in Example 1. 5 μM of the various compounds were added to 0-12 h rings in the culture medium and cells were examined by Giemsa staining after 24 h.

In the case of `CCCCCCCCCCCCCCCC(=O)N[C@H](CN1CCOCC1)[C@H](O)c1ccccc1` (relative stereo) [PPMP, dl-threo-1-phenyl-2-palmitoylamino-3-morpholino-1-propanol], the “TVM morphology in rings formed in the presence of drug” value ([1]; 240 optical sections through 20 cells) is reported as “markedly devoid of tubular connections”, the “intraerythrocytic structures at 36 h in continued presence of drug” value ([1]; 36 h in the life cycle) is reported as “remain as isolated spots” and the “effective anti-parasite concentration (predicted)” value [2] is reported as ~ 2 micrograms of PPMP/gm of mouse body weight. For the same molecule, the inhibition at 5 µM (P. falciparum strain FCB) was 100%.
